Tests used:
MNK1 = target: T1, MNK1 (Homo sapiens, UniProt Q9BUB5); assay: MNK inhibition assay (Z-Lyte kinase assay, Ser/Thr 7 peptide); type: biochemical; conditions: for IC50: recombinant GST-MNK1, 3 hours at 31° C.
T1 construct: purchased Life Technologies or Carna Biosciences PV6023 or 02-145; host or cells: baculovirus infected insect cells
Method in brief: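 Recombinant GST-MNK1 from baculovirus-infected insect cells, Z-Lyte Ser/Thr 7 peptide, enzyme set for ~30% phosphorylation in buffer-only wells; 3 hours at 31° C. Compounds at 50–10000 nM (potent ones down to 0.5 nM), at least duplicate. IC50 from % substrate phosphorylation versus buffer-only wells, fluorescence read-out.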

[1] = system: human pancreatic cancer cell line MiaPaCa2 (ATCC CRL-1420); assay: Cell growth assay (CellTiterGlo, 72 hours); type: cell-based; conditions: MIA PaCa-2, MiaPaCa2 cells, 72 hours, read-out: IC50 MiaPaCa
Method in brief: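 MiaPaCa2 cells (10^3/well) seeded in supplemented DMEM overnight, then exposed in quadruplicate to compound at 100 down to 0.1 μM for 72 h at 37° C. Growth read by CellTiterGlo luminescence, medium-only background subtracted, normalised to untreated cells; IC50 = concentration reducing growth to 50%.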

T1 sequence (Q9BUB5 whole entry): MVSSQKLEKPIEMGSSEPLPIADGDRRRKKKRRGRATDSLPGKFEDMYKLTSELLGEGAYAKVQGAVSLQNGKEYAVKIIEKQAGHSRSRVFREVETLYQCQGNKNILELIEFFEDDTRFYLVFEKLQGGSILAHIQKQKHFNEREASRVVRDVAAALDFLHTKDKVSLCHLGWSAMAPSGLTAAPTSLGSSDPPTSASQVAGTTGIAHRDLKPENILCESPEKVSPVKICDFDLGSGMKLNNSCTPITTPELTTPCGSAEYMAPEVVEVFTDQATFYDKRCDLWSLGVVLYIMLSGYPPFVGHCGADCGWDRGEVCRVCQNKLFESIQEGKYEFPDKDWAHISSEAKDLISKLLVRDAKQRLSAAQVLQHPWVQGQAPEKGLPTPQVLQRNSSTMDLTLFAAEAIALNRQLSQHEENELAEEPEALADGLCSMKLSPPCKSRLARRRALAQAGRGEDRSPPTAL

Row | IC50 (MNK1) | IC50 [1] | inhibition at 10 µM (MNK1; at 10 μM, read-out: Inhibition of MNK1 activity at indicated concentration) | SMILES
1 | 579 nM | 4.4 µM |  | NC1CCN(Cc2cc(Cl)c3cncc(-c4cc5ccccc5o4)c3c2)CC1 [Example 236, 1-[[4-(Benzofuran-2-yl)-8-chloro-6-isoquinolyl]methyl]piperidin-4-amine]
2 | 426 nM | 7.8 µM |  | NC1CCN(Cc2cc(Cl)c3cncc(-c4ccc(Cl)cc4)c3c2)CC1 [Example 237]
3 | 100 nM | 3.2 µM |  | NC1CCN(Cc2cc(Cl)c3cncc(-c4ccco4)c3c2)CC1 [Example 239]
4 | 213 nM | 10.4 µM |  | NC1CCN(Cc2cc(Cl)c3cncc(-c4ccccc4)c3c2)CC1 [Example 241]
5 | 164 nM | 2.74 µM |  | COc1cc(CN2CCC(N)CC2)cc2c(-c3cc4ccccc4o3)cncc12 [Example 242, 1-[[4-(Benzofuran-2-yl)-8-methoxy-6-isoquinolyl]methyl]piperidin-4-amine]
6 | 116 nM | 14.2 µM |  | COc1cc(CN2CCC(N)CC2)cc2c(-c3ccco3)cncc12 [Example 244]
7 | 228 nM | 8.4 µM |  | NC1CCN(Cc2cc(F)c3cncc(-c4cc5ccccc5o4)c3c2)CC1 [Example 247]
8 | 147 nM | 10 µM |  | NC1CCN(Cc2cc3c(-c4cc5ccccc5o4)cncc3c(F)c2F)CC1 [Example 248]
9 | 44 nM | 7.86 µM |  | NC1CCN(Cc2cc3c(-c4cc5ccccc5o4)cncc3cc2F)CC1 [Example 249]
10 | 64 nM | 4.94 µM |  | NC1CCN(Cc2cc3c(-c4cc5ccccc5o4)cncc3cc2Cl)CC1 [Example 250]
11 | 308 nM | 20.5 µM |  | NC1CCN(Cc2cc([N+](=O)[O-])c3cncc(-c4cc5ccccc5o4)c3c2)CC1 [Example 252, 1-[[4-(Benzofuran-2-yl)-8-nitro-6-isoquinolyl]methyl]piperidin-4-amine]
12 | 57 nM | 6.99 µM |  | Nc1cc2cncc(-c3cc4ccccc4o3)c2cc1CN1CCC(N)CC1 [Example 254, 6-[(4-Amino-1-piperidyl)methyl]-4-(benzofuran-2-yl)isoquinolin-7-amine]
13 | 216 nM | 1.22 µM |  | Nc1ncc(-c2cc3ccccc3o2)c2cc(CN3CCC(N)CC3)cc(Cl)c12 [Example 256, 6-[(4-Amino-1-piperidyl)methyl]-4-(benzofuran-2-yl)-8-chloro-isoquinolin-1-amine]
14 | 149 nM | 3.57 µM |  | COc1cc(CN2CCC(N)CC2)cc2c(-c3cc4ccccc4o3)cnc(N)c12 [Example 258, 6-[(4-Amino-1-piperidyl)methyl]-4-(benzofuran-2-yl)-8-methoxy-isoquinolin-1-amine]
15 | 703 nM | 9.97 µM |  | NC1CCN(Cc2ccc3cncc(-c4cc5ccccc5o4)c3c2)CC1(F)F (stereo not shown) [Example 263, 1-[[4-(Benzofuran-2-yl)-6-isoquinolyl]methyl]-3,3-difluoro-piperidin-4-amine]
16 | 53 nM | 5.33 µM |  | N[C@@H]1CCN(Cc2ccc3cncc(-c4cc5ccccc5o4)c3c2)C[C@H]1O [Example 268, (3R,4R/3S,4S)-4-Amino-1-[[4-(benzofuran-2-yl)-6-isoquinolyl]methyl]piperidin-3-ol]
17 | 141 nM | 9.03 µM |  | N[C@@H]1CCN(Cc2ccc3cncc(-c4cc5ccccc5o4)c3c2)C[C@@H]1O [Example 269, (3S,4R/3R,4S)-4-Amino-1-[[4-(benzofuran-2-yl)-6-isoquinolyl]methyl]piperidin-3-ol]
18 | 934 nM | 13.7 µM |  | CO[C@H]1CN(Cc2ccc3cncc(-c4cc5ccccc5o4)c3c2)CC[C@H]1N [Example 270, (3S,4R/3R,4S)-1-[[4-(Benzofuran-2-yl)-6-isoquinolyl]methyl]-3-methoxy-piperidin-4-amine]
19 | 288 nM | 4.29 µM |  | CO[C@@H]1CN(Cc2ccc3cncc(-c4cc5ccccc5o4)c3c2)CC[C@H]1N [Example 271]
20 | 767 nM | 30.4 µM |  | NC1CCN(Cc2ccc3cncc(-c4cc5cccnc5o4)c3c2)CC1 [Example 273, 1-[(4-Furo{2,3-b}pyridin-2-yl-6-isoquinolyl)methyl]piperidin-4-amine]
21 | 624 nM | 3.98 µM |  | NC1CCN(Cc2ccc3cncc(-c4cc5ccncc5o4)c3c2)CC1 [Example 274]
22 | 175 nM | 5.07 µM |  | NC1CCN(Cc2ccc3cncc(-c4cc5cnccc5o4)c3c2)CC1 [Example 275]
23 | 161 nM | 15.5 µM |  | NC1CCN(Cc2ccc3cncc(-c4cc5ncccc5o4)c3c2)CC1 [Example 276]
24 | 536 nM | 5.66 µM |  | NC1CCN(Cc2cc3c(-c4cc5ccccc5o4)cncc3c(Cl)c2Cl)CC1 [Example 280, 1-[[4-(Benzofuran-2-yl)-7,8-dichloro-6-isoquinolyl]methyl]piperidin-4-amine]

More lines, now with the values behind:

Row | SMILES | IC50 (MNK1) | IC50 [1] | inhibition at 10 µM (MNK1; at 10 μM, read-out: Inhibition of MNK1 activity at indicated concentration)
25 | N[C@H]1CC[C@H](Nc2ccc3cncc(-c4ccccc4)c3c2)CC1 [Example 229, trans-N4-(4-phenyl-6-isoquinolyl)cyclohexane-1,4-diamine] | 225 nM | 4.5 µM | 
26 | N[C@H]1CC[C@H](CNc2ccc3cncc(-c4cc5ccccc5o4)c3c2)CC1 [Example 230, trans-N-[(4-Aminocyclohexyl)methyl]-4-(benzofuran-2-yl) isoquinolin-6-amine] | 2190 nM | 6.02 µM | 
27 | N[C@H]1CC[C@@H](CNc2ccc3cncc(-c4cc5ccccc5o4)c3c2)CC1 [Example 231] |  | 3.24 µM | 54%
28 | Nc1ncc(-c2cc3ccccc3o2)c2cc(NCc3ccncc3)ccc12 [Example 233, 4-(Benzofuran-2-yl)-N6-(4-pyridylmethyl)isoquinoline-1,6-diamine] | 4300 nM | 6.8 µM | 
29 | NC1CCN(Cc2cc(Cl)c3cncc(-c4ccc(F)c(F)c4)c3c2)CC1 [Example 238] | 234 nM | 9.08 µM | 
30 | NC1CCN(Cc2cc(Cl)c3cncc(-c4cccs4)c3c2)CC1 [Example 240] | 145 nM | 5.76 µM | 
31 | COc1cc(CN2CCC(N)CC2)cc2c(-c3ccc(F)c(F)c3)cncc12 [Example 243] | 347 nM | 5.73 µM | 
32 | COc1cc(CN2CCC(N)CC2)cc2c(-c3cccs3)cncc12 [Example 245] | 24 nM | 3.33 µM | 
33 | COc1cc(CN2CCC(N)CC2)cc2c(-c3ccccc3)cncc12 [Example 246] | 432 nM | 5.73 µM | 
34 | NC1CCN(Cc2cc3c(-c4ccccc4)cncc3cc2Cl)CC1 [Example 251, 1-[(7-Chloro-4-phenyl-6-isoquinolyl)methyl]piperidin-4-amine] | 55 nM | 4.55 µM | 
35 | Nc1ncc(-c2ccccc2)c2cc(CN3CCC(N)CC3)cc(Cl)c12 [Example 257] | 159 nM | 4.87 µM | 
36 | COc1cc(CN2CCC(N)CC2)cc2c(-c3ccccc3)cnc(N)c12 [Example 259] | 66 nM | 1.3 µM | 
37 | Nc1ncc2ccc(CN3CCNCC3)cc2c1-c1cc2ccccc2o1 [Example 260, 4-(Benzofuran-2-yl)-6-(piperazin-1-ylmethyl)isoquinolin-3-amine] | 1590 nM | 17.5 µM | 
38 | Nc1ncc2ccc(CNc3ccnc4ccccc34)cc2c1-c1cc2ccccc2o1 [Example 261, 4-(Benzofuran-2-yl)-6-[(4-quinolylamino)methyl]isoquinolin-3-amine] | 54 nM | 3.99 µM | 
39 | c1ccc2oc(-c3cncc4ccc(CNc5ccnc6ncccc56)cc34)cc2c1 [Example 262, N-[[4-(Benzofuran-2-yl)-6-isoquinolyl]methyl]-1,8-naphthyridin-4-amine] | 28 nM | 6.8 µM | 
40 | Nc1ncc(-c2ccccc2)c2cc(CN3CCC(N)CC3)c(Cl)cc12 [Example 264, 6-[(4-Amino-1-piperidyl)methyl]-7-chloro-4-phenyl-isoquinolin-1-amine] | 194 nM | 5.93 µM | 
41 | NC1CCN(Cc2cc3c(-c4ccccc4)cncc3cc2O)CC1 [Example 265, 6-[(4-Amino-1-piperidyl)methyl]-4-phenyl-isoquinolin-7-ol] | 308 nM | 21.9 µM | 
42 | COc1cc2cncc(-c3ccccc3)c2cc1CN1CCC(N)CC1 [Example 266, 1-[(7-Methoxy-4-phenyl-6-isoquinolyl)methyl]piperidin-4-amine] | 59 nM | 14.4 µM | 
43 | COc1cc2c(N)ncc(-c3ccccc3)c2cc1CN1CCC(N)CC1 [Example 267, 6-[(4-Amino-1-piperidyl)methyl]-7-methoxy-4-phenyl-isoquinolin-1-amine] | 340 nM | 3.93 µM | 
44 | c1ccc2oc(-c3cncc4ccc(CNc5ccnc6[nH]ccc56)cc34)cc2c1 [Example 272, N-[[4-(Benzofuran-2-yl)-6-isoquinolyl]methyl]-1H-pyrrolo[2,3-b]pyridin-4-amine] | 5.4 nM | 7.25 µM | 
45 | c1ccc2oc(C3CNNc4ccc(CNc5ccncc5)cc43)cc2c1 (stereo not shown) [Example 277, N-[[4-(Benzofuran-2-yl)-1,2,3,4-tetrahydrocinnolin-6-yl]methyl]pyridin-4-amine] | 131 nM | 5.76 µM | 
46 | Nc1cc(NCc2ccc3nncc(-c4cc5ccccc5o4)c3c2)ccn1 [Example 278, N4-[[4-(Benzofuran-2-yl)cinnolin-6-yl]methyl]pyridine-2,4-diamine] | 43 nM | 3.57 µM | 
47 | COc1c(CN2CCC(N)CC2)cc2c(-c3cc4ccccc4o3)cncc2c1OC [Example 279, 1-[[4-(Benzofuran-2-yl)-7,8-dimethoxy-6-isoquinolyl]methyl]piperidin-4-amine] | 116 nM | 5.63 µM | 

Reference: patent US20200031811A1, “SUBSTITUTED MONO- AND POLYAZANAPHTHALENE DERIVATIVES AND THEIR USE” (Basilea Pharmaceutica International AG, priority 2015, published 2020)
